Test results reported in ChEMBL document CHEMBL4229487, “Cyclic analogue of S-benzylisothiourea that suppresses kynurenine production without inhibiting indoleamine 2,3-dioxygenase activity” (Bioorg Med Chem Lett, 2018).

Experiments:
A-431 [1] = test: Inhibition of kynurenine production in IFNgamma-treated human A431 cells at 10 uM after 24 hrs in presence of tryptophan relative to control; type: functional; details: A-431, 24 h
[2] = biological target: Indoleamine 2,3-dioxygenase 1 (Homo sapiens) (UniProt P14902); test: Inhibition of recombinant human IDO at 10 uM using L-tryptophan as substrate after 60 mins relative to control
Sequence of Indoleamine 2,3-dioxygenase 1 (Homo sapiens) (P14902 whole entry, looked up): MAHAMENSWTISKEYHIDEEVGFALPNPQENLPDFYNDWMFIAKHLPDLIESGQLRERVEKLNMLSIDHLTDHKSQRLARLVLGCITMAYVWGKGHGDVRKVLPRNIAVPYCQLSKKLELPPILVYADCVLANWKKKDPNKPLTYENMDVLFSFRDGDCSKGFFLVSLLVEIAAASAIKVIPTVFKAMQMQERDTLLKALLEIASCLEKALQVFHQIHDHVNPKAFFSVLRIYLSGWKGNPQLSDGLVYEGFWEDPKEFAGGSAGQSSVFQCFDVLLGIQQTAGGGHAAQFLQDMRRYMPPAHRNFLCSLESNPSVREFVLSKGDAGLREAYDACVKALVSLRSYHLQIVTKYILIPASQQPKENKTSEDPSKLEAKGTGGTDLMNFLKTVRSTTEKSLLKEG

A-431 [3] = test: Inhibition of kynurenine production in IFNgamma-treated human A431 cells at 1 uM after 24 hrs in presence of tryptophan relative to control; type: functional; details: A-431, 24 h
A-431 [4] = test: Cytotoxicity against human A431 cells; type: cell-based
A-431 [5] = test: Inhibition of kynurenine production in IFNgamma-treated human A431 cells after 24 hrs in presence of tryptophan; type: functional, cell-based; details: A-431, 24 h
A-431 [6] = test: Cytotoxicity against human A431 cells at 100 uM; type: cell-based; details: a-431, 100 µM
A-431 [7] = test: Inhibition of IFNgamma-induced IDO expression in human A431 cells after 24 hrs by Western blot method; type: functional, cell-based
A-431 [8] = test: Inhibition of IFNgamma-induced STAT1 expression in human A431 cells after 24 hrs by Western blot method; type: functional, cell-based

SMILES	inhibition [2] [%]	inhibition at 1 µM (A-431 [3]) [%]	other results
N=C(N)SCc1ccccc1	–	–	inhibition at 10 µM (A-431 [1]): 44%
c1ccc(CCc2ccccc2CSC2=NCCN2)cc1	17	7	–
c1ccc(CCc2ccccc2CSC2=NCCS2)cc1	0	0	–
c1ccc(CCc2ccccc2CSc2ncc[nH]2)cc1	19	1	–
c1ccc(CCc2ccccc2CSc2nccs2)cc1	31	7	–
Clc1ccc2sc(SCc3ccccc3CCc3ccccc3)nc2c1	9	-8	–
c1ccc(CCc2ccccc2CSc2nc3ccccc3[nH]2)cc1	43	43	Activity (A-431 [4]): Non-Toxic
Clc1ccc2oc(SCc3ccccc3CCc3ccccc3)nc2c1	21	-18	–

The next lines start with results.

inhibition [2] [%]	SMILES	inhibition at 1 µM (A-431 [3]) [%]	other results
47	Clc1ccc2[nH]c(SCc3ccccc3CCc3ccccc3)nc2c1	48	Activity (A-431 [4]): Non-Toxic
24	O=S(=O)(Cc1ccccc1)c1ccccc1CSc1nc2cc(Cl)ccc2[nH]1	1	–
30	Clc1ccc2[nH]c(SCc3ccccc3Oc3ccccc3)nc2c1	39	–
-6	Clc1ccc2[nH]c(SCc3ccccc3/C=C/c3ccccc3)nc2c1	15	–
49	Clc1ccc2[nH]c(SCc3ccccc3/C=C\c3ccccc3)nc2c1	–	IC50 (A-431 [5]): 0.34 µM; Activity (A-431 [6]): Non-Toxic
52	Clc1ccc2[nH]c(SCc3ccccc3C#Cc3ccccc3)nc2c1	6	–
3	Clc1ccc2[nH]c(SCc3ccccc3OCc3ccccc3)nc2c1	30	–
46	Clc1ccc2[nH]c(SCc3ccccc3Cc3ccccc3)nc2c1	13	–
19	Clc1ccc2[nH]c(SCc3ccccc3SCc3ccccc3)nc2c1	–	IC50 (A-431 [5]): 0.45 µM; Activity (A-431 [6]): Non-Toxic; inhibition (A-431 [7]): Dose-dependent effect; inhibition (A-431 [8]): Dose-dependent effect
11	[O-][S+](Cc1ccccc1)c1ccccc1CSc1nc2cc(Cl)ccc2[nH]1 (stereo not drawn)	30	–
19	Clc1ccc2[nH]c(SCc3ccccc3CCCc3ccccc3)nc2c1	44	–
